These results are taken from patent US7199112B2, “Use of phospholipid arachidonic acids for increasing muscle mass in humans” (priority 2005, dated 2007).

The test system of test [1] is adrenocorticotropin (ACTH) and cortisol response. Conditions: intravenous infusion; cited from earlier work.
The subject of test [2] is intestinal transport of certain nutrients. Conditions: cited from earlier work.
Test [3] relates to lean skeletal muscle mass. Conditions: peroral, humans, clinical study by the inventor.
The subject of the next test is IGF-1 response. As to conditions: certain cell studies; cited from earlier work.

As to Phosphatidylserine, the “adrenocorticotropin (ACTH) and cortisol response to stressful exercise” value in test [1] is “significantly suppresses”.
As for Lysophosphatidylcholine, the “intestinal transport of certain nutrients” value in test [2] was “increases”.
For “lysophosphatidylcholine arachidonic acid”, in test [3], the “increasing lean skeletal muscle mass” value is recorded as “effective”.
With Phosphatidylcholine, in the test on IGF-1 response, the IGF-1 response entry is given as “exert an IGF-1 response”.
As to phosphatidylserine arachidonic acid, the “increasing lean skeletal muscle mass” value in test [3] is on record as “effective”.
Still for that read-out and setting: then phosphatidylcholine arachidonic acid, with “effective”.
